Measurements reported in paper PMC11887051, “Discovery of ONO-2920632 (VU6011887): A Highly Selective and CNS Penetrant TREK-2 (TWIK-Related K+ Channel 2) Preferring Activator In Vivo Tool Compound” (ACS Chemical Neuroscience, 2025).
“Also recorded” adds a separate entry of the source.

How the values were obtained:
TREK-1 [1] = target: T1, TREK-1 (Homo sapiens, UniProt O95069); experiment: manual patch clamp (MPC) assay, TREK-1, species not stated; format: cell-based
T1 sequence (O95069 1-426): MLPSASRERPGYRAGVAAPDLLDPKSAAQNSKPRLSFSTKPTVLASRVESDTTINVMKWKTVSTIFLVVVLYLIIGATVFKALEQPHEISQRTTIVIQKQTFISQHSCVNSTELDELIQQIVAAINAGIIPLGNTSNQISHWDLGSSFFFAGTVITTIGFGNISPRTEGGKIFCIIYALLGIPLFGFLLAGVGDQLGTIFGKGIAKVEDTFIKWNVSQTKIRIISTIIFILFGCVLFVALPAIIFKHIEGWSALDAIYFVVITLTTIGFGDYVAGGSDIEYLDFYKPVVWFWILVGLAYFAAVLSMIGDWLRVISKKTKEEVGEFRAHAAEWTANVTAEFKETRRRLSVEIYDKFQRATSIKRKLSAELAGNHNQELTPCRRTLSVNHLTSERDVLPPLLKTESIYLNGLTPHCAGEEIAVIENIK

TREK-2 = target: T2, TREK-2 (Homo sapiens, UniProt P57789); experiment: manual patch clamp (MPC) assay, TREK-2, species not stated; format: cell-based
T2 sequence (P57789 1-538): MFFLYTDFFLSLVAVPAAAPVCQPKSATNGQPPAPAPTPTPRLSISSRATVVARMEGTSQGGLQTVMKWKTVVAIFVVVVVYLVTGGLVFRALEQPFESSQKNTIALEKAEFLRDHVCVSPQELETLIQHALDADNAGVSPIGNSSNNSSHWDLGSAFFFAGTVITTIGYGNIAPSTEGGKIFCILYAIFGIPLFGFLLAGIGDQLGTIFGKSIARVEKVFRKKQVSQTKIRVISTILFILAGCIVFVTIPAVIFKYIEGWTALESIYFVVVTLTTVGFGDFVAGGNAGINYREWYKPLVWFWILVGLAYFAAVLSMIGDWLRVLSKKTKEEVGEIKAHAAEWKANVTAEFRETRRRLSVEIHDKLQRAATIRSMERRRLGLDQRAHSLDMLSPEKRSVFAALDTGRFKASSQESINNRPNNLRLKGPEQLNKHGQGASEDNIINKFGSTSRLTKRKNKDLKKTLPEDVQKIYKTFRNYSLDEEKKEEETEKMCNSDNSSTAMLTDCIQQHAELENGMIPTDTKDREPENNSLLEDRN

TREK-1 [2] = target: T1, TREK-1; experiment: human 86Rb flux K2P selectivity panel; format: cell-based; conditions: data is not shown
ICR male mice = experiment: acetic acid writhing assay; format: in vivo; conditions: mouse, 0.3, 1, 3 mg/kg PO, 2 h before acetic acid IP, writhes counted 30 min
Procedure: To initially explore the role of TREK-2 activation in analgesia, we evaluated 19b in the acetic acid writhing assay. Injection of acetic acid activates nociceptors directly and/or produces inflamed viscera (subdiaphragmatic organs) and subcutaneous (muscle wall) tissues. The number of writhes (characterized by contraction of the abdominal musculature and extension of the limbs) was then counted for 30 min. Analgesic effect was determined by comparing the number of writhes between in the presence of 19b or vehicle. […] At the 3 mg/kg PO dose of 19b, total brain levels are ∼3 μM and free brain in 0.92 μM and CSF levels in 0.22 μM, providing a good PK/PD relationship and supporting the data generated with the TREK activator 3.
Figure 4 Analgesic effect in acetic acid writhing assay. ICR male mice (6 weeks of age) were pretreated with vehicle (0.5 w/v% Methyl Cellulose in distilled water, PO) or 19b (= ONO-2920632) (0.3, 1, 3 mg/kg, PO) or Indomethacin (10 mg/kg, PO). […] The number of writhes (characterized by contraction of the abdominal musculature and extension of the limbs) was then counted for 30 min. Analgesic effect was determined by comparing the number of writhes between in the presence of compound and in the presence of vehicle (*; p < 0.05 by Student’s t test, #; p < 0.05 by Williams test).

Adenosine A2A = Adenosine A2A (Homo sapiens, UniProt P29274); experiment: Eurofins Lead Profiling radioligand binding; conditions: title: 30 μM
Chain of Adenosine A2A (P29274 whole entry): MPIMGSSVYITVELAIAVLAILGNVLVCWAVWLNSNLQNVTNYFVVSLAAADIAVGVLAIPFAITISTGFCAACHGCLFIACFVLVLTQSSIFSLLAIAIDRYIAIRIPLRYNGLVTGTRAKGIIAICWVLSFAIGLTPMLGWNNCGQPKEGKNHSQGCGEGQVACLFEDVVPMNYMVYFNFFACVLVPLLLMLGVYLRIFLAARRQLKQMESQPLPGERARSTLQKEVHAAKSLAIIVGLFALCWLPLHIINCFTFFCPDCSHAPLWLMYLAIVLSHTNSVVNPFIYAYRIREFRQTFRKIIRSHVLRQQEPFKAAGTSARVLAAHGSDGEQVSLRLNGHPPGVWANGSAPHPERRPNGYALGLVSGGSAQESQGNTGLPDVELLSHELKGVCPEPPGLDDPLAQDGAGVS

Adrenergic α1B = Adrenergic α1B (Rattus norvegicus, UniProt P15823); experiment: Eurofins Lead Profiling radioligand binding; conditions: title: 30 μM
Bradykinin B1 = Bradykinin B1 (Homo sapiens, UniProt P46663); experiment: Eurofins Lead Profiling radioligand binding; conditions: title: 30 μM
Calcium Channel N-Type = Calcium Channel N-Type (Rattus norvegicus, UniProt Q02294); experiment: Eurofins Lead Profiling radioligand binding; conditions: title: 30 μM
Dopamine D4.2 = Dopamine D4.2 (Homo sapiens, UniProt P21917, DEL265-296); experiment: Eurofins Lead Profiling radioligand binding; conditions: title: 30 μM
Chain of Dopamine D4.2 (P21917 with tags, fused parts or gaps DEL265-296): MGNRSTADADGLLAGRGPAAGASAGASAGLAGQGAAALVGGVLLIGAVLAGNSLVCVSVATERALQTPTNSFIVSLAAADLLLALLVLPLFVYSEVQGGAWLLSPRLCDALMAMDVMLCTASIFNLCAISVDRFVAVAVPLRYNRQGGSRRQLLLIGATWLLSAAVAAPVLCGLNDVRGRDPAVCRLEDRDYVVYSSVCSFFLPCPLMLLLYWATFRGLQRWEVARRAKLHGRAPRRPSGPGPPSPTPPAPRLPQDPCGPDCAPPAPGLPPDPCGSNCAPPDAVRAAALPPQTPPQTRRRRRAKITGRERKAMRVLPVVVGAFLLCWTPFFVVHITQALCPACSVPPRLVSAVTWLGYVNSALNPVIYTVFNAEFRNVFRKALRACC

Endothelin ETA = Endothelin ETA (Homo sapiens, UniProt P25101); experiment: Eurofins Lead Profiling radioligand binding; conditions: title: 30 μM
Chain of Endothelin ETA (P25101 21-427): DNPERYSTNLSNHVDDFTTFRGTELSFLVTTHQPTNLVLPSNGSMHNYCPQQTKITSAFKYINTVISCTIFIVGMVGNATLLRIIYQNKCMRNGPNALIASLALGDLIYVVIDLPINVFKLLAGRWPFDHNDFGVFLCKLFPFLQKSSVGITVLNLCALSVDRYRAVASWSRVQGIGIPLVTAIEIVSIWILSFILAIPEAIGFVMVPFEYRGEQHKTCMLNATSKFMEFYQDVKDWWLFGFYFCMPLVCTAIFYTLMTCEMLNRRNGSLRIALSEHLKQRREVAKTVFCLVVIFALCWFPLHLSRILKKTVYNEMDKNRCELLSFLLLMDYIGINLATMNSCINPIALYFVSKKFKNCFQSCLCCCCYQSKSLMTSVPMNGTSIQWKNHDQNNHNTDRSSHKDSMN

Estrogen ERα = Estrogen ERα (Homo sapiens, UniProt P03372); experiment: Eurofins Lead Profiling radioligand binding; conditions: title: 30 μM
Imidazoline I2, Central = experiment: Eurofins Lead Profiling radioligand binding; set-up: species or system Rat; conditions: title: 30 μM
Neuropeptide Y Y1 = Neuropeptide Y Y1 (Homo sapiens, UniProt P25929); experiment: Eurofins Lead Profiling radioligand binding; conditions: title: 30 μM
Chain of Neuropeptide Y Y1 (P25929 whole entry): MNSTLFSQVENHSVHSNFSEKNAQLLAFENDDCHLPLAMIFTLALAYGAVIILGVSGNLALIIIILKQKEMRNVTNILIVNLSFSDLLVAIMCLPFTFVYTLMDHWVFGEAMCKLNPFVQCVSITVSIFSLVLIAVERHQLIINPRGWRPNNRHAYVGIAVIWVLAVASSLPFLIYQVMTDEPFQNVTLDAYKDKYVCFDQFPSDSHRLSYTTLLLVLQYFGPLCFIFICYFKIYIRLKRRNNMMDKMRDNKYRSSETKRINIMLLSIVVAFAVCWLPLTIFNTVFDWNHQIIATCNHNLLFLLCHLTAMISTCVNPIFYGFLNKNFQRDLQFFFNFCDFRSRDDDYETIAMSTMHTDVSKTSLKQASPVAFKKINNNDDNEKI

[3] = target: Nicotinic Acetylcholine α3β4 (Homo sapiens, UniProt P30926+P32297); experiment: Eurofins Lead Profiling radioligand binding; conditions: title: 30 μM
Chain of Nicotinic Acetylcholine α3β4 (P32297 32-505): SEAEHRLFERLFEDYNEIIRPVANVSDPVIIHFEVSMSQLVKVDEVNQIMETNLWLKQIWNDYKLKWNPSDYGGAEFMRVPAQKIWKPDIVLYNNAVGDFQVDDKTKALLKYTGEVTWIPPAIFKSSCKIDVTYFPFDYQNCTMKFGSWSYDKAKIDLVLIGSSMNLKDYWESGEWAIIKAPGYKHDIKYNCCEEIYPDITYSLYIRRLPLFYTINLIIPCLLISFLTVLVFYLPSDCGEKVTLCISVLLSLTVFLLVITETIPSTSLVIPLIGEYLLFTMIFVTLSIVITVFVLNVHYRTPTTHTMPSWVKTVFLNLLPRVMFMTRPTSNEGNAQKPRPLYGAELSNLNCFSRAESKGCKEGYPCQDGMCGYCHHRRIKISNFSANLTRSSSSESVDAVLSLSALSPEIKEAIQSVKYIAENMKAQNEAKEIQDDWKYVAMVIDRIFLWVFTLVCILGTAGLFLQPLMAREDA
Chain of Nicotinic Acetylcholine α3β4 (P30926 22-498): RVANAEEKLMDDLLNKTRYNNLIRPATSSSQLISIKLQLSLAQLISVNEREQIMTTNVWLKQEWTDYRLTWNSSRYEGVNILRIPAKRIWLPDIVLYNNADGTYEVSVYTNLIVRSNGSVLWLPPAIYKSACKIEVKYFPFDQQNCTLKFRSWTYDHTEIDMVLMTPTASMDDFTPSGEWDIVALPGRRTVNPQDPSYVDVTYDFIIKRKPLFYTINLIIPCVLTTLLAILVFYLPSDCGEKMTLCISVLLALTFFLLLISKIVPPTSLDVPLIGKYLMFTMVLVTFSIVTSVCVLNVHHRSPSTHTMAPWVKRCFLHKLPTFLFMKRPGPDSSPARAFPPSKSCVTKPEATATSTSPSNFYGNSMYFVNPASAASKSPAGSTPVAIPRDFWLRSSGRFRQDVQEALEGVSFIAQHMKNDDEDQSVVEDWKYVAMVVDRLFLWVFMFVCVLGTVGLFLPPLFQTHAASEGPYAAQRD

[4] = target: Platelet Activating Factor (PAF) (Homo sapiens, UniProt P25105); experiment: Eurofins Lead Profiling radioligand binding; conditions: title: 30 μM
Chain of Platelet Activating Factor (PAF) (P25105 whole entry): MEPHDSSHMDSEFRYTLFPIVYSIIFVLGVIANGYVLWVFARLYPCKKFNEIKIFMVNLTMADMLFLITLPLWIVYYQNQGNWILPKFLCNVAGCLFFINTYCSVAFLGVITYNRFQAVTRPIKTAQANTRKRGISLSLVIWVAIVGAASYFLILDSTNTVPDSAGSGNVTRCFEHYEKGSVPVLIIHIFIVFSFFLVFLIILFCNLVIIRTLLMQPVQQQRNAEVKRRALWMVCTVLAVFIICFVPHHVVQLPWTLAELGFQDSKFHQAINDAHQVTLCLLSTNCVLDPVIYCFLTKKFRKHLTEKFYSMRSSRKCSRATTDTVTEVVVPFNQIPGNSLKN

Purinergic P2X = experiment: Eurofins Lead Profiling radioligand binding; set-up: species or system Rabbit; conditions: title: 30 μM
Serotonin (5-HT2B) = Serotonin (5-HT2B) (Homo sapiens, UniProt P41595); experiment: Eurofins Lead Profiling radioligand binding; conditions: title: 30 μM
Chain of Serotonin (5-HT2B) (P41595 whole entry): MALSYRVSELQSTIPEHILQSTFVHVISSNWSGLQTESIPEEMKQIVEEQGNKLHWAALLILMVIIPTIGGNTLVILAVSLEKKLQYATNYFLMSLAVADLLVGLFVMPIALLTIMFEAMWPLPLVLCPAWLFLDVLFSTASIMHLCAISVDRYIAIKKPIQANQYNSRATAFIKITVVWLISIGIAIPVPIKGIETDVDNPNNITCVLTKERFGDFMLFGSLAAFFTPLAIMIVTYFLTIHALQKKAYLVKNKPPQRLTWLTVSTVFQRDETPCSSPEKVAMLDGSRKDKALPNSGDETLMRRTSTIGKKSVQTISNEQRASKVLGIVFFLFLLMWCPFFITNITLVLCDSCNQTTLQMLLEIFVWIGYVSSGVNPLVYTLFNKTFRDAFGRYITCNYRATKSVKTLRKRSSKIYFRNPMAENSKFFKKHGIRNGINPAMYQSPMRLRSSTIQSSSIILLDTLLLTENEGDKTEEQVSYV

Serotonin (5-HT3) = Serotonin (5-HT3) (Homo sapiens, UniProt P46098); experiment: Eurofins Lead Profiling radioligand binding; conditions: title: 30 μM
Chain of Serotonin (5-HT3) (P46098 24-478): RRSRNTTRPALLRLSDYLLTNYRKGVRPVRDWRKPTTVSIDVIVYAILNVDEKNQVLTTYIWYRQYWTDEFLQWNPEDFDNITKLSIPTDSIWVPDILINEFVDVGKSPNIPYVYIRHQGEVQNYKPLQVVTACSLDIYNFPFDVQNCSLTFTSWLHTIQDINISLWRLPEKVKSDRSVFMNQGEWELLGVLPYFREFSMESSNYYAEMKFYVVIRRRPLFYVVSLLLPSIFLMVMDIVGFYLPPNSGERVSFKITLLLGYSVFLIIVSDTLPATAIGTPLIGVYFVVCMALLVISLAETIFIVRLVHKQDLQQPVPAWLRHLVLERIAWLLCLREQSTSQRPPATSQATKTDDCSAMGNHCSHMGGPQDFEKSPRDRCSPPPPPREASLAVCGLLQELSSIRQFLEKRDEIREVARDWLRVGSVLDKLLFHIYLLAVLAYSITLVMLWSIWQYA

Tachykinin NK1 = Tachykinin NK1 (Homo sapiens, UniProt P25103); experiment: Eurofins Lead Profiling radioligand binding; conditions: title: 30 μM
Chain of Tachykinin NK1 (P25103 whole entry): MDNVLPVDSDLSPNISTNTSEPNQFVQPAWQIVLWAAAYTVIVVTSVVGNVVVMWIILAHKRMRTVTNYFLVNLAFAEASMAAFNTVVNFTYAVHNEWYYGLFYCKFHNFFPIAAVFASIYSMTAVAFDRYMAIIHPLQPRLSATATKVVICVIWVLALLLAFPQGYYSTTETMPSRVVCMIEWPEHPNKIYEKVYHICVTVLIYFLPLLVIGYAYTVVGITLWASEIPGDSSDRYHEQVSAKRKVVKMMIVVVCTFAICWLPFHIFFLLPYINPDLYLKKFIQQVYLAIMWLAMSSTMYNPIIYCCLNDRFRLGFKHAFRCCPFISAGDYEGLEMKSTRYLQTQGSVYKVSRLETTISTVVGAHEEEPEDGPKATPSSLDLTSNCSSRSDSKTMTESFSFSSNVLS

[5] = target: Transporter, Serotonin (SERT) (Homo sapiens, UniProt P31645); experiment: Eurofins Lead Profiling radioligand binding; conditions: title: 30 μM
Chain of Transporter, Serotonin (SERT) (P31645 whole entry): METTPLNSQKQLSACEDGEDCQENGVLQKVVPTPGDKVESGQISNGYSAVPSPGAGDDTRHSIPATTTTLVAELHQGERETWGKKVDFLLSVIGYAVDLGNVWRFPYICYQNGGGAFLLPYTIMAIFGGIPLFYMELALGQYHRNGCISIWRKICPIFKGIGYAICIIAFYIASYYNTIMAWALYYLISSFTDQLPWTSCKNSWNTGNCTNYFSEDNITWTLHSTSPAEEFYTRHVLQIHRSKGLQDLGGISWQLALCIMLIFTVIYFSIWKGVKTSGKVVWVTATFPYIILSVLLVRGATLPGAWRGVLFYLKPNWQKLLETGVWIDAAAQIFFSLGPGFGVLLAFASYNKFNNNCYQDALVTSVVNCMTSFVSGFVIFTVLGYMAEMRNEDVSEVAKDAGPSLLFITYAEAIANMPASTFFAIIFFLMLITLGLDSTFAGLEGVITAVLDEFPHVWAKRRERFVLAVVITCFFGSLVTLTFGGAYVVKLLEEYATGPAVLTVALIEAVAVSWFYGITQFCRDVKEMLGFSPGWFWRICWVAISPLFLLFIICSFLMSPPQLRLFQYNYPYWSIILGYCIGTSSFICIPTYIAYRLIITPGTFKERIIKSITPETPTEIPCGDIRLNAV

Structure (SMILES): CS(=O)(=O)Nc1ccc(C(=O)NCc2ccc(Cl)cc2Cl)cc1 [Compound 13]
- EC50 (TREK-1 [1]): 7.4 µM
- Emax (TREK-1 [1]): 99%
- selectivity for TREK-2 in MPC assay (TREK-2; TREK-2 over TREK-1, manual patch clamp): ~8 fold
- EC50 (TREK-2; manual patch clamp): 0.95 µM
- Emax (TREK-2; manual patch clamp): 126%

Structure (SMILES): O=C(NCc1ccc(OC(F)(F)F)cc1F)c1ccc2ncnn2c1 [Compound 19b]
- activity at TREK-1 in 86Rb flux panel (TREK-1 [2]): micromolar activity
- analgesic effect (number of writhes) (ICR male mice): dose-dependently reduces the number of writhes; also recorded: analgesic efficacy at 3 mg/kg PO of comparable magnitude to the positive control indomethacin
- analgesic effect (number of writhes) (ICR male mice; listed as ONO-2920632): robust, dose dependent efficacy
- inhibition (Adenosine A2A): 10%
- inhibition at 10 µM (Adrenergic α1B): 6%
- inhibition (Bradykinin B1): -12%
- inhibition (Calcium Channel N-Type): -1%
- inhibition (Dopamine D4.2): 15%
- inhibition (Endothelin ETA): -3%
- inhibition (Estrogen ERα): 1%
- % Inhibition at 10 µM (Imidazoline I2, Central): 2%
- inhibition (Neuropeptide Y Y1): 2%
- inhibition [3]: -17%
- inhibition [4]: 12%
- % Inhibition at 10 µM (Purinergic P2X): 22%
- inhibition (Serotonin (5-HT2B)): 14%
- inhibition (Serotonin (5-HT3)): 4%
- inhibition (Tachykinin NK1): 2%
- inhibition [5]: 2%
